Experiments:
Experiment in all cases: Eurofins kinase panel
Format in all cases: biochemical
Settings in all cases: read-out: Inhibition rate (%)
CaMKIIα(h) = biological target: T1, CaMKIIα(h) (Homo sapiens, UniProt Q9UQM7)
T1 construct: purchased Eurofins (KinaseProfiler)

DYRK3(h) = biological target: T2, DYRK3(h) (Homo sapiens, UniProt O43781)
T2 construct: purchased Eurofins (KinaseProfiler)
T2 sequence (O43781 1-588): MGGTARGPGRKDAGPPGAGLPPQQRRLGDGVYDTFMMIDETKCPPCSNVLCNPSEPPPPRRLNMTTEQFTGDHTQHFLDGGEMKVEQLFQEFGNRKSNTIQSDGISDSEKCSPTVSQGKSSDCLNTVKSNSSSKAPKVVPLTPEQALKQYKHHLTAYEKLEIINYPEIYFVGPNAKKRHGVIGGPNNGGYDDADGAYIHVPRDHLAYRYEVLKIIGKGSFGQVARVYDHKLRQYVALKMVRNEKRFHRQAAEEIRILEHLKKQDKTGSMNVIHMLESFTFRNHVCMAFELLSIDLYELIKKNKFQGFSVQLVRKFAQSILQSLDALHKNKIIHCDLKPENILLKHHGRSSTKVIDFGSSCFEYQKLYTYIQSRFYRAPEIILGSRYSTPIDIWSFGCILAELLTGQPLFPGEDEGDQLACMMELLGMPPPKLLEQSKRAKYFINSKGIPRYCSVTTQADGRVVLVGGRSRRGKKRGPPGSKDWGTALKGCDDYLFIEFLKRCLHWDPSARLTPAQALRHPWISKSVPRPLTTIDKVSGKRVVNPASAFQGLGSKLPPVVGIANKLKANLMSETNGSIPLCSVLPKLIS

EGFR(h) = biological target: T3, EGFR(h) (Homo sapiens, UniProt P00533)
T3 construct: purchased Eurofins (KinaseProfiler)

EphB3(h) = biological target: T4, EphB3(h) (Homo sapiens, UniProt P54753)
T4 construct: purchased Eurofins (KinaseProfiler)
T4 sequence (P54753 34-998): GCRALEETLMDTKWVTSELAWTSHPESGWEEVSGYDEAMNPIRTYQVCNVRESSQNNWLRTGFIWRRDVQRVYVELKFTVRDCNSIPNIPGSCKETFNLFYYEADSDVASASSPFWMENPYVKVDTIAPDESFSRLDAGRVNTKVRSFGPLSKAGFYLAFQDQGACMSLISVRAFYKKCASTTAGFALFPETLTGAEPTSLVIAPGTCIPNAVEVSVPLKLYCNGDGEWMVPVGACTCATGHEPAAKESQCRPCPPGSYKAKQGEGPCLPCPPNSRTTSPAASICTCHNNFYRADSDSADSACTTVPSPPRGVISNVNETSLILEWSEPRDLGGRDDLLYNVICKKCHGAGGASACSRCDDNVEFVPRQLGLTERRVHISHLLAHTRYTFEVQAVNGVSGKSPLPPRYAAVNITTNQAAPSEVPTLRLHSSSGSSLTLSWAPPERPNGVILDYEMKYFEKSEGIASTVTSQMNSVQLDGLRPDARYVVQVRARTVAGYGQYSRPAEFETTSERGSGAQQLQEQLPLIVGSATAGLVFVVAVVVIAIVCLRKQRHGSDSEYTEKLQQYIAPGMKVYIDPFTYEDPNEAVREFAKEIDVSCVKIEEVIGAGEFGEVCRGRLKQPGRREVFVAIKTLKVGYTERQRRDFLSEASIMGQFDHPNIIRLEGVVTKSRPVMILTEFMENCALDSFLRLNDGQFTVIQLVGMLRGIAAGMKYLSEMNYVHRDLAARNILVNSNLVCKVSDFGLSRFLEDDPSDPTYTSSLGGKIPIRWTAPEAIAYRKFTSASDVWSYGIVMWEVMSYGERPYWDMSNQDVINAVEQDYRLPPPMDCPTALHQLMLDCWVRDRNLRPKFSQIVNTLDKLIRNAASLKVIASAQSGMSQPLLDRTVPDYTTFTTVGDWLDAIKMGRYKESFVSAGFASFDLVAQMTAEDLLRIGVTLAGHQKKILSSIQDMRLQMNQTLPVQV

PAR-1Bα(h) = biological target: T5, PAR-1Bα(h) (Homo sapiens, UniProt Q7KZI7)
T5 construct: purchased Eurofins (KinaseProfiler)

[1] = biological target: T6, PI3 Kinase (p110α(E545K)/p85α)(h) (Homo sapiens, UniProt P42336, E545K)
T6 construct: purchased Eurofins (KinaseProfiler)

[2] = biological target: T7, PI3 Kinase (p110α/p85α)(h) (Homo sapiens, UniProt P42336)
T7 construct: purchased Eurofins (KinaseProfiler)

[3] = biological target: T8, PI3 Kinase (p110β/p85α)(h) (Homo sapiens, UniProt P42338)
T8 construct: purchased Eurofins (KinaseProfiler)

SAPK4(h) = biological target: T9, SAPK4(h) (Homo sapiens, UniProt O15264)
T9 construct: purchased Eurofins (KinaseProfiler)
T9 sequence (O15264 1-365): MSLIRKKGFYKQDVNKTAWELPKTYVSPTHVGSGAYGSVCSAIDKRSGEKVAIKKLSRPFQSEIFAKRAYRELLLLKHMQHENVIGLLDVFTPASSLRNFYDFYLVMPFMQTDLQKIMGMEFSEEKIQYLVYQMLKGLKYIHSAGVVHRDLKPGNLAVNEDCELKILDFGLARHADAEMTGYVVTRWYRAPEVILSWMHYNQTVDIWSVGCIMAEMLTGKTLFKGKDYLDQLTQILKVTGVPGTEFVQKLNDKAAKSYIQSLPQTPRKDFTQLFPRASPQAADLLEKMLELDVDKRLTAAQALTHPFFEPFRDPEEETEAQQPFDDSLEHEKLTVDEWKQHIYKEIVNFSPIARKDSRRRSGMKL

Tie2(R849W)(h) = biological target: T10, Tie2(R849W)(h) (Homo sapiens, UniProt Q02763, R849W)
T10 construct: purchased Eurofins (KinaseProfiler)
T10 sequence (Q02763 23-1124 R849W): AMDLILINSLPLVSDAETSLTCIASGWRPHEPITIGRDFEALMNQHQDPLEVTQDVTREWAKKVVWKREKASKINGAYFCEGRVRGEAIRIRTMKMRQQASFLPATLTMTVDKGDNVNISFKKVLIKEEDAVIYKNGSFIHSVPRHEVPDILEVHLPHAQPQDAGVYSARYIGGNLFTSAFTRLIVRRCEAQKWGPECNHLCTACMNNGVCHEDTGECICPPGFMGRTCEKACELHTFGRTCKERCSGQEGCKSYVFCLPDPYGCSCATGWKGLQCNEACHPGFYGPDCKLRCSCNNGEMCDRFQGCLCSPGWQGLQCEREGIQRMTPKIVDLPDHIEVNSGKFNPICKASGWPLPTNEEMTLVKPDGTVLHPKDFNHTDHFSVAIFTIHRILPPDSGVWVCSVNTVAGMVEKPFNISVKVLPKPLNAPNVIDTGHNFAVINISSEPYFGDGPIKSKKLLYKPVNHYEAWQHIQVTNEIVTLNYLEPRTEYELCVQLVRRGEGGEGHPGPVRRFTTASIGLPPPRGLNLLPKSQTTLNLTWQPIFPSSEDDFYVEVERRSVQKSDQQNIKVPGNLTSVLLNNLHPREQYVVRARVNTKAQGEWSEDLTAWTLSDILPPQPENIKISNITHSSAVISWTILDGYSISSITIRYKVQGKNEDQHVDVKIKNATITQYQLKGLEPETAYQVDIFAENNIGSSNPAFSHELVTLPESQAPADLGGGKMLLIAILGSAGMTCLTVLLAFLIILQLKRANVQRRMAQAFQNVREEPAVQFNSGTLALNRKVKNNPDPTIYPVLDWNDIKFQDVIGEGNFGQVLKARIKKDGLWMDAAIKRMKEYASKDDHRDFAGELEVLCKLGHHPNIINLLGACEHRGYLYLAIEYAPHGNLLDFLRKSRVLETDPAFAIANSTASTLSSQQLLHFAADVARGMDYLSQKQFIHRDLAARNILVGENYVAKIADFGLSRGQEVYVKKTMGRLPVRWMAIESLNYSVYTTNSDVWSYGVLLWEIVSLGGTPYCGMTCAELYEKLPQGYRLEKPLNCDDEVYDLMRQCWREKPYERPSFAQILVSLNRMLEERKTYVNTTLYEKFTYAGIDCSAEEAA

T1 sequence (Q9UQM7 whole entry): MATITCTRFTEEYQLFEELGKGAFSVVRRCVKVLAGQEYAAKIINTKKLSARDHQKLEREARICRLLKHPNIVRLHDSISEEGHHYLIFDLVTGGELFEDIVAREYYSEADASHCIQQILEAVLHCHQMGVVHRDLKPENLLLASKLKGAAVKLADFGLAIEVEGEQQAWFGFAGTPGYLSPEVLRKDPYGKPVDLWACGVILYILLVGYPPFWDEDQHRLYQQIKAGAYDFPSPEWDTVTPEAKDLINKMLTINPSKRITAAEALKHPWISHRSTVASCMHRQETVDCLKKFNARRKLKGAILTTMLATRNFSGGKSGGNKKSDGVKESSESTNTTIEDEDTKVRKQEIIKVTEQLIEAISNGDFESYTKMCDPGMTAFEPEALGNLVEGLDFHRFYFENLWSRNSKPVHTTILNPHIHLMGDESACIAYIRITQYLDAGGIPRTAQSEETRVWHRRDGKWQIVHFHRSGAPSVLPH
T7 sequence (P42336 whole entry): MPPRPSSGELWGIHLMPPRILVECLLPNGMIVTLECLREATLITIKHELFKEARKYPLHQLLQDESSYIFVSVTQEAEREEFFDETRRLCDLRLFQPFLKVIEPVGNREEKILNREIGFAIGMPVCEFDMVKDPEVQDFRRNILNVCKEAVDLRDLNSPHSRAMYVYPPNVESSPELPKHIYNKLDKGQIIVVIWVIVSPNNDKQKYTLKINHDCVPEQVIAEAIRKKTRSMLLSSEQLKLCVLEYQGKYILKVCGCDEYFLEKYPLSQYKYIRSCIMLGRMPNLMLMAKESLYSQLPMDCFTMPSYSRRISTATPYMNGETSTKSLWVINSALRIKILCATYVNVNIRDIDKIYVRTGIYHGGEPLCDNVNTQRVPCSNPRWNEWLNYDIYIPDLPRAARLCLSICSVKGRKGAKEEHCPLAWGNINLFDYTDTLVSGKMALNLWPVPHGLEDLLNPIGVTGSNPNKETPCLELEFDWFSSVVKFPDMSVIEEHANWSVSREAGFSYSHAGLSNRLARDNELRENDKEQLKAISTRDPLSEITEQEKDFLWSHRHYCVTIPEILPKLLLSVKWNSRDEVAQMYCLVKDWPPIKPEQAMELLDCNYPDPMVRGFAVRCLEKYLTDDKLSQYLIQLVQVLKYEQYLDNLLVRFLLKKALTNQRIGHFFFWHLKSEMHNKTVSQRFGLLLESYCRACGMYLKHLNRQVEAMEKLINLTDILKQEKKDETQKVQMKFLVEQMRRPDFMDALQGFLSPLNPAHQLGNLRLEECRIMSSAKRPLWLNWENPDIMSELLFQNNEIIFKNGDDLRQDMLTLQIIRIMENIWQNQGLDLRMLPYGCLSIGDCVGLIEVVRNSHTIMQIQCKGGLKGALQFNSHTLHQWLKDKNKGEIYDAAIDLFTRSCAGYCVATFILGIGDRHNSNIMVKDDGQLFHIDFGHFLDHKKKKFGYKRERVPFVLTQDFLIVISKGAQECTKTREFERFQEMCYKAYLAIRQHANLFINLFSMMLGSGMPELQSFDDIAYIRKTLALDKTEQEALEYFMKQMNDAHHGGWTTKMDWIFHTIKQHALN
T7 sequence (P27986 whole entry partner): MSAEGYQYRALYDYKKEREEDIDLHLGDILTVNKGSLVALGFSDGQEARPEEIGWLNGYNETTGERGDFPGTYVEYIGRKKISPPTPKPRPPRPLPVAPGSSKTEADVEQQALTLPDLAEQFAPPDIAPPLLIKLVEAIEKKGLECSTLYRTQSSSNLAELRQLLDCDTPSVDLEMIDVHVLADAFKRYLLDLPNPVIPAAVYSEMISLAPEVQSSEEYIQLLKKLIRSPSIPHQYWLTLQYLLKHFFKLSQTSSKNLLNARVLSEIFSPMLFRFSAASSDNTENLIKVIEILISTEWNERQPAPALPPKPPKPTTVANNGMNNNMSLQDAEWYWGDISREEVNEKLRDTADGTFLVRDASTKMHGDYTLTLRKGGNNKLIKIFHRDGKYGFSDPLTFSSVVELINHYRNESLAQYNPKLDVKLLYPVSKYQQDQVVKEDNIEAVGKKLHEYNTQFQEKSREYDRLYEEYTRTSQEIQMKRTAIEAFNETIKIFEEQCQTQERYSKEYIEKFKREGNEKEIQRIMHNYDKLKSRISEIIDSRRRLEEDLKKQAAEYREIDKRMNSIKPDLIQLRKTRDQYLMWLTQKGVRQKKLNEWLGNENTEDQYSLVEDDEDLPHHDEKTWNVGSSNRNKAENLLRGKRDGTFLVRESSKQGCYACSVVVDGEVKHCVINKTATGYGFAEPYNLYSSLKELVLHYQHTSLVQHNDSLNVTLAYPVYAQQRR
T6 sequence (P42336 whole entry E545K): as the sequence (P42336 whole entry) above, with E545K counted along it
T6 sequence (P27986 whole entry partner): as the sequence (P27986 whole entry partner) above
T3 sequence (P00533 25-1210): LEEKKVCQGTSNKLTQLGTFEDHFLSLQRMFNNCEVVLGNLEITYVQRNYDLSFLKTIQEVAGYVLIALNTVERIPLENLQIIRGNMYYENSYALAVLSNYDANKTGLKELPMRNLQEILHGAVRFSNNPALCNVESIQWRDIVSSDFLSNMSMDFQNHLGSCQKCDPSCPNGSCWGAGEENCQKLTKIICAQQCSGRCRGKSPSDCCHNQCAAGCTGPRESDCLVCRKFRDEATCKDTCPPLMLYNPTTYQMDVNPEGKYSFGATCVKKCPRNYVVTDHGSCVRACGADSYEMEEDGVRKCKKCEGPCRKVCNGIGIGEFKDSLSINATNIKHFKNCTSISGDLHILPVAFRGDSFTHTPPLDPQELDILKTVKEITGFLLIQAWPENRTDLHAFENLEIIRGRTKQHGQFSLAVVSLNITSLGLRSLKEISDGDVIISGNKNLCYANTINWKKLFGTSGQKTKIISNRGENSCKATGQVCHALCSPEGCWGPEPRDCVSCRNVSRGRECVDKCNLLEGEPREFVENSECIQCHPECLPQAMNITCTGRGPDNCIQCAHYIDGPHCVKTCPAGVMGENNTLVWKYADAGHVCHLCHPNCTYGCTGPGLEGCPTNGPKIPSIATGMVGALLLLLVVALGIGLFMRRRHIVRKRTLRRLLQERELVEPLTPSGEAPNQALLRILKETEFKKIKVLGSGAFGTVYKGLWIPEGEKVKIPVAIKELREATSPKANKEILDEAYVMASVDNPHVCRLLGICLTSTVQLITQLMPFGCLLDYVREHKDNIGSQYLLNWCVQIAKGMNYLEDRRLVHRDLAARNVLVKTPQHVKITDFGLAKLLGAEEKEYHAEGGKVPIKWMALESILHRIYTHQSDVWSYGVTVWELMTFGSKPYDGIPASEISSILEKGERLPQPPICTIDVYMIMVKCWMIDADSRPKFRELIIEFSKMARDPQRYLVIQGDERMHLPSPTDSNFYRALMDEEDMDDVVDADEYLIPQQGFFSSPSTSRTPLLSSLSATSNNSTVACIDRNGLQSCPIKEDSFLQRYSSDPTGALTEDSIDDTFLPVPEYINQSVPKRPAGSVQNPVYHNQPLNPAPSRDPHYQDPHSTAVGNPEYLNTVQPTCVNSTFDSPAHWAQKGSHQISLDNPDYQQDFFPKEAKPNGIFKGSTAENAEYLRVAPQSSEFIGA

Compound: COc1cc(OC)c(Cl)c(-c2ccc3c(NC(=O)c4ccc(N5CCNC(C)(C)C5)cc4)n[nH]c3n2)c1Cl [3D185]
- inhibition at 0.01 µM (CaMKIIα(h); 10 nM): -9%
- inhibition at 0.1 µM (CaMKIIα(h); 100 nM): 2%
- inhibition at 1 µM (CaMKIIα(h); 1000 nM): -15%
- inhibition at 0.01 µM (DYRK3(h); 10 nM): -24%
- inhibition at 0.1 µM (DYRK3(h); 100 nM): -31%
- inhibition at 1 µM (DYRK3(h); 1000 nM): -27%
- inhibition at 0.01 µM (EGFR(h); 10 nM): -12%
- inhibition at 0.1 µM (EGFR(h); 100 nM): -16%
- inhibition at 1 µM (EGFR(h); 1000 nM): 0%
- inhibition at 0.01 µM (EphB3(h); 10 nM): 13%
- inhibition at 0.1 µM (EphB3(h); 100 nM): 1%
- inhibition at 1 µM (EphB3(h); 1000 nM): 5%
- inhibition at 0.01 µM (PAR-1Bα(h); 10 nM): -4%
- inhibition at 0.1 µM (PAR-1Bα(h); 100 nM): -3%
- inhibition at 1 µM (PAR-1Bα(h); 1000 nM): 2%
- inhibition at 0.01 µM ([1]; 10 nM): -2%
- inhibition at 0.1 µM ([1]; 100 nM): -2%
- inhibition at 1 µM ([1]; 1000 nM): 2%
- inhibition at 0.01 µM ([2]; 10 nM): -1%
- inhibition at 0.1 µM ([2]; 100 nM): 1%
- inhibition at 1 µM ([2]; 1000 nM): 2%
- inhibition at 0.01 µM ([3]; 10 nM): 0%
- inhibition at 0.1 µM ([3]; 100 nM): 1%
- inhibition at 1 µM ([3]; 1000 nM): 4%
- inhibition at 0.01 µM (SAPK4(h); 10 nM): -12%
- inhibition at 0.1 µM (SAPK4(h); 100 nM): -8%
- inhibition at 1 µM (SAPK4(h); 1000 nM): -11%
- inhibition at 0.01 µM (Tie2(R849W)(h); 10 nM): -6%
- inhibition at 0.1 µM (Tie2(R849W)(h); 100 nM): 39%
- inhibition at 1 µM (Tie2(R849W)(h); 1000 nM): 86%
